We go through 2 molecules from US9434747B2, “Methods of treating diabetes” (Medivation Technologies, Inc., priority 2011, dated 2016).

As a reminder, the inhibition is the relative decrease from the control value, in per cent.

Assay [1] has as its target T1, rat adrenergic α1B receptor (Rattus norvegicus, UniProt P15823).
T1 construct: rat adrenergic α1B receptor obtained from Wistar Rat liver; from tissue; host or cells: Wistar rat liver
T1 sequence (P15823 1-515): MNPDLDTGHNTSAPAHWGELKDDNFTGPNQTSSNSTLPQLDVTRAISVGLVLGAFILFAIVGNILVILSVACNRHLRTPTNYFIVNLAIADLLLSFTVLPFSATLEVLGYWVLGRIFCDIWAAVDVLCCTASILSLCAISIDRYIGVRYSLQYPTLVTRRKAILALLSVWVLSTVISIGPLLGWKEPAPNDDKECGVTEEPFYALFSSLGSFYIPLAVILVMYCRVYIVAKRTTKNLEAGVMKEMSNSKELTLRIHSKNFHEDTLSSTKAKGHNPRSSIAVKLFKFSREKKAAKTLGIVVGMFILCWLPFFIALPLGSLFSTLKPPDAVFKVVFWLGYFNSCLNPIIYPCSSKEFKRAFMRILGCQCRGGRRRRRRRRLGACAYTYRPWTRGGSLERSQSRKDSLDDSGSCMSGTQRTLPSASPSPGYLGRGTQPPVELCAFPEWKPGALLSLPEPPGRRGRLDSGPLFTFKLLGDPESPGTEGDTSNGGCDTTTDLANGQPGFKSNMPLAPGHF
The experiment in a line: Radioligand binding assay, adrenergic α1B ([3H]Prazosin). The following applies: compound at 0.1 μM; 0.25 nM [3H]Prazosin; Wistar rat liver; read-out: Percentage inhibition of ligand binding, Adrenergic α1B. The method, then:
To evaluate in radioligand binding assays the activity of compounds, rat adrenergic α1B receptor obtained from Wistar Rat liver (Garcia-S'ainz, J. et al, Biochem. Biophys. Res. Commun. 186:760, 1992; Michel, A. et al, Br. J. Pharmacol. 98:883, 1989) in a modified Tris-HCl buffer (50 mM Tris-HCl buffer, pH 7.4, 0.5 mM EDTA) was used. Compounds were incubated with 0.25 nM [^3H]Prazosin for 60 min at 25° C. Non-specific binding was estimated in the presence of 10 μM phentolamine. Receptor proteins were filtered and washed, the filters were then counted to determine [^3H]Prazosin specifically bound. Compounds were screened at 1 μM or lower, using 1% DMSO as vehicle. Compounds were tested in this biochemical assay and percent inhibition of specific binding was determined. Biochemical assay results are presented as the percent inhibition of specific binding in Tables B1A-B1D.

Assay [2] addresses T2, human recombinant adrenergic α2B receptor (Homo sapiens, UniProt P18089).
T2 construct: expressed in transfected cells; host or cells: Chinese hamster ovary (CHO) K1 cells
T2 sequence (P18089 1-450): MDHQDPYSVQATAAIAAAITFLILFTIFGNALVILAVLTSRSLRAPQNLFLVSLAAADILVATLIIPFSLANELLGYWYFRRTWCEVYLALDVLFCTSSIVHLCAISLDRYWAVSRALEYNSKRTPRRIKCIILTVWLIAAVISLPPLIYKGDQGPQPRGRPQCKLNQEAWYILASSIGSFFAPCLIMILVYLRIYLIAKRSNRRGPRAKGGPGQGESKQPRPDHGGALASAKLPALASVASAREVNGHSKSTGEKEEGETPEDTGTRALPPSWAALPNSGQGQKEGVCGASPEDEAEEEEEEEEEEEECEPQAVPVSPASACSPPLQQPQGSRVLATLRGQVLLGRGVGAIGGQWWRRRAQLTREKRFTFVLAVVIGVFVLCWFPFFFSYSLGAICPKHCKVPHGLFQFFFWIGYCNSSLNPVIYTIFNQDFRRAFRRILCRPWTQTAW
As to the kind of experiment: Radioligand binding assay, adrenergic α2B ([3H]Rauwolscine). The conditions noted are these: compound at 0.1 μM; 2.5 nM [3H]Rauwolscine; CHO-K1 cells; read-out: Percentage inhibition of ligand binding, Adrenergic α2B. The method, then:
To evaluate in radioligand binding assays the activity of compounds, human recombinant adrenergic α2B receptor expressed in Chinese hamster ovary (CHO) K1 cells (Uhlen, S. et al, Eur. J. Pharmacol. 343(1):93, 1998) in a modified Tris-HCl buffer (50 mM Tris-HCl, pH 7.4, 12.5 mM MgCl2, 1 mM EDTA, 0.2% BSA) was used. Compounds were incubated with 2.5 nM [^3H]Rauwolscine for 60 min at 25° C. Non-specific binding was estimated in the presence of 10 μM Prazosin. Receptor proteins were filtered and washed, the filters were then counted to determine [^3H]Rauwolscine specifically bound. Compounds were screened at 1 μM or lower, using 1% DMSO as vehicle. Compounds were tested in this biochemical assay and percent inhibition of specific binding was determined. Biochemical assay results are presented as the percent inhibition of specific binding in Tables B1A-B1D.

For assay [3], the target named is T3, human recombinant adrenergic α1D receptor (Homo sapiens, UniProt P25100).
T3 construct: expressed in transfected cells; host or cells: human embryonic kidney (HEK-293) cells
T3 sequence (P25100 1-572): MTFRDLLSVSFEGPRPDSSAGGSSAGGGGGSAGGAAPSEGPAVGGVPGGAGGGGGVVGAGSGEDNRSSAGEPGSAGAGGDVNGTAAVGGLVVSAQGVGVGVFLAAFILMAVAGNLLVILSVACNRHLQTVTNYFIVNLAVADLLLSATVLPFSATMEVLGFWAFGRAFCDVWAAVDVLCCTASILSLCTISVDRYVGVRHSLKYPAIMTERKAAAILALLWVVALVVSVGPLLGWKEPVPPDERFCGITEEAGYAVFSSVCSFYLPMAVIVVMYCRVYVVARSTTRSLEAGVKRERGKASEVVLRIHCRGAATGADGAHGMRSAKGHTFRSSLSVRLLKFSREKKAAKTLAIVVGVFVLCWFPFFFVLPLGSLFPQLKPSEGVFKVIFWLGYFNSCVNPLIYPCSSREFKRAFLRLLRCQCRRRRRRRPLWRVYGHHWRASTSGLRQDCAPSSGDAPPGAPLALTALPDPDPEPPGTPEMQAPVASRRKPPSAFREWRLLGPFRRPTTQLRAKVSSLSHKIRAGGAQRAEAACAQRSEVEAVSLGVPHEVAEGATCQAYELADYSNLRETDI
As to the kind of experiment: Radioligand binding assay, adrenergic α1D ([3H]Prazosin). The conditions noted are these: compound at 0.1 μM; 0.6 nM [3H]Prazosin; HEK-293 cells; read-out: Percentage inhibition of ligand binding, Adrenergic α1D. The method, then: To evaluate in radioligand binding assays the activity of compounds of the invention, human recombinant adrenergic α1D receptor expressed in human embryonic kidney (HEK-293) cells (Kenny, B. et al, Br. J. Pharmacol. 115(6):981, 1995) in a 50 mM Tris-HCl buffer, pH 7.4, was used. Compounds were incubated with 0.6 nM [3H]Prazosin for 60 min at 25° C. Non-specific binding was estimated in the presence of 10 μM phentolamine. Receptor proteins were filtered and washed, the filters were then counted to determine [3H]Prazosin specifically bound. Compounds were screened at 1 μM or lower, using 1% DMSO as vehicle. Biochemical assay results are presented as the percent inhibition of specific binding in Tables B1A-B1D.

Assay [4] deals with T4, human recombinant adrenergic α2A receptor (Homo sapiens, UniProt P08913).
T4 construct: expressed in transfected cells; host or cells: insect Sf9 cells
T4 sequence (P08913 1-465): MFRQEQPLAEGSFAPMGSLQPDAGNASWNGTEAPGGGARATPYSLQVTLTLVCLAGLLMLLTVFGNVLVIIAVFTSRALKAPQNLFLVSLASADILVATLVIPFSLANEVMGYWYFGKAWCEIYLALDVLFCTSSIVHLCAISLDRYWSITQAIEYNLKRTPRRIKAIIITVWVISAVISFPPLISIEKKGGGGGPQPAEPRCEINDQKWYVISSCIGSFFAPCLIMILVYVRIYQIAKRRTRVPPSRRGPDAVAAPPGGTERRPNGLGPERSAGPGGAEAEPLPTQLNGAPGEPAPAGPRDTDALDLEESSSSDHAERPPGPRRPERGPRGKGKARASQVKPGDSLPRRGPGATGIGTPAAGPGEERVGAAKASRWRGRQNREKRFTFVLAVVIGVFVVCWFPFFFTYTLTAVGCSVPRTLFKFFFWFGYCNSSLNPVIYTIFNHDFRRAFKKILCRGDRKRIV
As to the kind of experiment: Radioligand binding assay, adrenergic α2A ([3H]MK-912). The following applies: compound at 0.1 μM; 1 nM [3H]MK-912; Sf9 cells; read-out: Percentage inhibition of ligand binding, Adrenergic α2A. The protocol: To evaluate in radioligand binding assays the activity of compounds, human recombinant adrenergic α2A receptor expressed in insect Sf9 cells (Uhlen, S. et al, J. Pharmacol. Exp. Ther. 271:1558, 1994) in a modified Tris-HCl buffer (50 mM Tris-HCl, pH 7.4, 12.5 mM MgCl2, 2 mM EDTA) was used. Compounds were incubated with 1 nM [^3H]MK-912 for 60 min at 25° C. MK912 is (2S-trans)-1,3,4,5′,6,6′,7,12b-octahydro-1′,3′-dimethyl-spiro[2H-benzofuro[2,3-a]quinolizine-2,4′(1′H)-pyrimidin]-2′(3′H)-one hydrochloride. Non-specific binding was estimated in the presence of 10 μM WB-4101 (2-(2,6-Dimethoxyphenoxyethyl)aminomethyl-1,4-benzodioxane hydrochloride). Receptor proteins were filtered and washed, the filters were then counted to determine [^3H]MK-912 specifically bound. Compounds were screened at 1 μM or lower, using 1% DMSO as vehicle. Compounds were tested in this biochemical assay and percent inhibition of specific binding was determined. Biochemical assay results are presented as the percent inhibition of specific binding in Tables B1A-B1D.

Regarding `Cc1cc(-c2ccc(F)cc2)c2[nH]c3c(c2c1)CN(C)CC3` [Compound A7], the inhibition at 0.1 µM is 2% in assay [1], -9% in assay [2], 4% in assay [3] and 10% in assay [4].

With `Cc1cc2c3c(c1)c1c(n3CC2c2ccc(C)nc2)CCN(C)C1` (centres unmarked) [Compound B210], the inhibition at 0.1 µM in assay [2] was 14%.
